# Reference: the supplement of paper PMC10307832
# Assays:
# Assay in all cases: relative viability (nuclei count vs DMSO), 5 days (fraction); higher = more cells survive
# PC-14 = test system: PC-14
# How it was run: (§1)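 Lung cancer cell lines in 1536-well plates were dosed by pin tool the day after seeding, either with one drug alone or with a fixed anchor-drug dose plus five library-drug doses (not always all listed) in √10 steps. After 5 days, cells were fixed and their nuclei stained in one step (final 0.05% Triton X-100, 1% formaldehyde, 1 ug/ml Hoechst), then counted on 4× images. Relative viability is the nuclei count in treated wells divided by that in vehicle wells. Values are medians of duplicate plates.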
# LCLC-97TM1 = test system: LCLC-97TM1
# How it was run: as §1
# NCI-H441 = test system: NCI-H441
# How it was run: as §1
# NCI-H2126 = test system: NCI-H2126
# How it was run: as §1
# NCI-H2009 = test system: NCI-H2009
# How it was run: as §1
# NCI-H460 = test system: NCI-H460
# How it was run: as §1
# COR-L23 = test system: COR-L23
# How it was run: as §1
# HCC-78 = test system: HCC-78
# How it was run: as §1
# SW 900 = test system: SW 900
# How it was run: as §1
# NCI-H647 = test system: NCI-H647
# How it was run: as §1
# LCLC-103H = test system: LCLC-103H
# How it was run: as §1
# HCC-366 = test system: HCC-366
# How it was run: as §1
# ChaGo-K-1 = test system: ChaGo-K-1
# How it was run: as §1
# NCI-H1734 = test system: NCI-H1734
# How it was run: as §1
# LOU-NH91 = test system: LOU-NH91
# How it was run: as §1
# HARA = test system: HARA
# How it was run: as §1
# NCI-H650 = test system: NCI-H650
# How it was run: as §1
# NCI-H1355 = test system: NCI-H1355
# How it was run: as §1
# 201T = test system: 201T
# How it was run: as §1
# NCI-H1792 = test system: NCI-H1792
# How it was run: as §1
# HCC-15 = test system: HCC-15
# How it was run: as §1
structure (smiles),measurement,setting,value
COCC1(CO)C(=O)C2CCN1CC2 (stereo not drawn) [PRIMA-1MET] + CC(=O)c1c(C)c2cnc(Nc3ccc(N4CCNCC4)cn3)nc2n(C2CCCC2)c1=O [Palbociclib] (partner 0.5 µM),relative viability,PC-14; first compound 0.2 µM,0.644
same,relative viability,PC-14; first compound 0.6325 µM,0.476
same,relative viability,PC-14; first compound 2 µM,0.509
same,relative viability,PC-14; first compound 6.325 µM,0.525
same,relative viability,PC-14; first compound 20 µM,0.0303
same,relative viability,LCLC-97TM1; first compound 0.2 µM,0.215
same,relative viability,LCLC-97TM1; first compound 0.6325 µM,0.192
same,relative viability,LCLC-97TM1; first compound 2 µM,0.193
same,relative viability,LCLC-97TM1; first compound 6.325 µM,0.264
same,relative viability,LCLC-97TM1; first compound 20 µM,0.206
same,relative viability,NCI-H441; first compound 0.2 µM,0.221
same,relative viability,NCI-H441; first compound 0.6325 µM,0.227
same,relative viability,NCI-H441; first compound 2 µM,0.192
same,relative viability,NCI-H441; first compound 6.325 µM,0.201
same,relative viability,NCI-H441; first compound 20 µM,0.205
same,relative viability,NCI-H2126; first compound 0.2 µM,0.335
same,relative viability,NCI-H2126; first compound 0.6325 µM,0.336
same,relative viability,NCI-H2126; first compound 2 µM,0.321
same,relative viability,NCI-H2126; first compound 6.325 µM,0.372
same,relative viability,NCI-H2126; first compound 20 µM,0.326
same,relative viability,NCI-H2009; first compound 0.2 µM,0.185
same,relative viability,NCI-H2009; first compound 0.6325 µM,0.251
same,relative viability,NCI-H2009; first compound 2 µM,0.112
same,relative viability,NCI-H2009; first compound 6.325 µM,0.215
same,relative viability,NCI-H2009; first compound 20 µM,0.0008
same,relative viability,NCI-H460; first compound 0.2 µM,0.153
same,relative viability,NCI-H460; first compound 0.6325 µM,0.139
same,relative viability,NCI-H460; first compound 2 µM,0.168
same,relative viability,NCI-H460; first compound 6.325 µM,0.114
same,relative viability,NCI-H460; first compound 20 µM,0.0061
same,relative viability,COR-L23; first compound 0.2 µM,0.291
same,relative viability,COR-L23; first compound 0.6325 µM,0.191
same,relative viability,COR-L23; first compound 2 µM,0.251
same,relative viability,COR-L23; first compound 6.325 µM,0.353
same,relative viability,COR-L23; first compound 20 µM,0.0222
same,relative viability,HCC-78; first compound 0.2 µM,0.449
same,relative viability,HCC-78; first compound 0.6325 µM,0.507
same,relative viability,HCC-78; first compound 2 µM,0.397
same,relative viability,HCC-78; first compound 6.325 µM,0.446
same,relative viability,HCC-78; first compound 20 µM,0.427
same,relative viability,SW 900; first compound 0.2 µM,0.601
same,relative viability,SW 900; first compound 0.6325 µM,0.564
same,relative viability,SW 900; first compound 6.325 µM,0.559
same,relative viability,SW 900; first compound 20 µM,0.0834
same,relative viability,NCI-H647; first compound 0.2 µM,0.449
same,relative viability,NCI-H647; first compound 0.6325 µM,0.387
same,relative viability,NCI-H647; first compound 2 µM,0.276
same,relative viability,NCI-H647; first compound 6.325 µM,0.481
same,relative viability,NCI-H647; first compound 20 µM,0.42
same,relative viability,LCLC-103H; first compound 0.2 µM,0.488
same,relative viability,LCLC-103H; first compound 0.6325 µM,0.376
same,relative viability,LCLC-103H; first compound 2 µM,0.466
same,relative viability,LCLC-103H; first compound 6.325 µM,0.484
same,relative viability,LCLC-103H; first compound 20 µM,0.425
same,relative viability,HCC-366; first compound 0.2 µM,0.433
same,relative viability,HCC-366; first compound 0.6325 µM,0.31
same,relative viability,HCC-366; first compound 2 µM,0.382
same,relative viability,HCC-366; first compound 6.325 µM,0.407
same,relative viability,HCC-366; first compound 20 µM,0.0167
same,relative viability,ChaGo-K-1; first compound 0.2 µM,0.989
same,relative viability,ChaGo-K-1; first compound 0.6325 µM,0.897
same,relative viability,ChaGo-K-1; first compound 2 µM,0.917
same,relative viability,ChaGo-K-1; first compound 6.325 µM,0.906
same,relative viability,ChaGo-K-1; first compound 20 µM,0.836
same,relative viability,NCI-H1734; first compound 0.2 µM,0.362
same,relative viability,NCI-H1734; first compound 0.6325 µM,0.306
same,relative viability,NCI-H1734; first compound 2 µM,0.369
same,relative viability,NCI-H1734; first compound 6.325 µM,0.345
same,relative viability,NCI-H1734; first compound 20 µM,0.053
same,relative viability,LOU-NH91; first compound 0.2 µM,0.507
same,relative viability,LOU-NH91; first compound 0.6325 µM,0.514
same,relative viability,LOU-NH91; first compound 2 µM,0.54
same,relative viability,LOU-NH91; first compound 6.325 µM,0.508
same,relative viability,LOU-NH91; first compound 20 µM,0.452
same,relative viability,HARA; first compound 0.2 µM,0.252
same,relative viability,HARA; first compound 0.6325 µM,0.318
same,relative viability,HARA; first compound 6.325 µM,0.286
same,relative viability,HARA; first compound 20 µM,0.261
same,relative viability,NCI-H650; first compound 0.2 µM,0.317
same,relative viability,NCI-H650; first compound 0.6325 µM,0.289
same,relative viability,NCI-H650; first compound 2 µM,0.367
same,relative viability,NCI-H650; first compound 6.325 µM,0.338
same,relative viability,NCI-H650; first compound 20 µM,0.0905
same,relative viability,NCI-H1355; first compound 0.2 µM,0.465
same,relative viability,NCI-H1355; first compound 0.6325 µM,0.393
same,relative viability,NCI-H1355; first compound 2 µM,0.328
same,relative viability,NCI-H1355; first compound 6.325 µM,0.436
same,relative viability,NCI-H1355; first compound 20 µM,0.414
same,relative viability,201T; first compound 0.2 µM,0.386
same,relative viability,201T; first compound 0.6325 µM,0.356
same,relative viability,201T; first compound 2 µM,0.331
same,relative viability,201T; first compound 6.325 µM,0.352
same,relative viability,201T; first compound 20 µM,0.331
same,relative viability,NCI-H1792; first compound 0.2 µM,0.633
same,relative viability,NCI-H1792; first compound 0.6325 µM,0.596
same,relative viability,NCI-H1792; first compound 2 µM,0.622
same,relative viability,NCI-H1792; first compound 6.325 µM,0.7
same,relative viability,NCI-H1792; first compound 20 µM,0.638
same,relative viability,HCC-15; first compound 0.2 µM,0.677
same,relative viability,HCC-15; first compound 0.6325 µM,0.407
same,relative viability,HCC-15; first compound 2 µM,0.687
same,relative viability,HCC-15; first compound 6.325 µM,0.735
same,relative viability,HCC-15; first compound 20 µM,0.652
